Measured values from PubChem BioAssay (NCI).
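Where inhibition never reached the appropriate level, the endpoint shown equals the highest concentration tested. Otherwise, values were interpolated linearly from a five-concentration, 48-hour dose response in 96-well plates. TGI denotes the concentration required for complete inhibition of growth.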

Columns and labels:
Assay in all cases: NCI anticancer screen, dose series, 48 h
[1] = tested on: BT-549 breast
[2] = tested on: OVCAR-4 ovarian
[3] = tested on: MCF7 breast
[4] = tested on: OVCAR-5 ovarian
[5] = tested on: A498 renal
[6] = tested on: SK-MEL-5 melanoma
[7] = tested on: EKVX NSCLC
[8] = tested on: NCI-H522 lung
[9] = tested on: HCT-116 colon
[10] = tested on: HOP-62 NSCLC
[11] = tested on: MALME-3M melanoma
[12] = tested on: HS 578T breast
[13] = tested on: RPMI-8226 leukemia
[14] = tested on: 786-0 renal
[15] = tested on: CCRF-CEM leukemia
[16] = tested on: PC-3 prostate
[17] = tested on: SK-OV-3 ovarian
[18] = tested on: TK-10 renal
[19] = tested on: OVCAR-3 ovarian
[20] = tested on: UO-31 renal
[21] = tested on: HT29 colon
[22] = tested on: T-47D breast
[23] = tested on: HL-60(TB) leukemia
[24] = tested on: HOP-92 NSCLC
[25] = tested on: HCT-15 colon
[26] = tested on: U251 CNS
[27] = tested on: OVCAR-8 ovarian
[28] = tested on: CAKI-1 renal
[29] = tested on: SW-620 colon
[30] = tested on: SK-MEL-28 melanoma
[31] = tested on: HCC-2998 colon
[32] = tested on: COLO 205 colon
[33] = tested on: UACC-257 melanoma
[34] = tested on: MDA-MB-231 breast
[35] = tested on: UACC-62 melanoma
[36] = tested on: IGROV1 ovarian
[37] = tested on: SF-539 CNS
[38] = tested on: RXF 393 renal
[39] = tested on: MDA-N
[40] = tested on: NCI-H226 lung
[41] = tested on: MOLT-4 leukemia
[42] = tested on: SNB-75 CNS
[43] = tested on: MDA-MB-435
[44] = tested on: NCI-H23 lung
[45] = tested on: ACHN renal
[46] = tested on: KM12 colon
[47] = tested on: SF-268 CNS
[48] = tested on: SNB-19 CNS
[49] = tested on: NCI/ADR-RES ovarian
[50] = tested on: M14 melanoma
[51] = tested on: LOX IMVI melanoma
[52] = tested on: DU-145 prostate
[53] = tested on: SR leukemia
[54] = tested on: K-562 leukemia
[55] = tested on: SK-MEL-2 melanoma
[56] = tested on: A549 NSCLC
[57] = tested on: SN12C renal
[58] = tested on: SF-295 CNS

SMILES: Cc1ccc(C2=CC(=O)/C(=C\C(=O)c3ccc(Cl)cc3)O2)cc1
- TGI [1]: 5.54 µM
- TGI [2]: 33.5 µM
- TGI [3]: 25.6 µM
- TGI [4]: 40.6 µM
- TGI [5]: 71.8 µM
- TGI [6]: 33.2 µM
- TGI [7]: > 100 µM
- TGI [8]: 4.99 µM
- TGI [9]: 27.8 µM
- TGI [10]: > 100 µM
- TGI [11]: 32.7 µM
- TGI [12]: 55.1 µM
- TGI [13]: 6.31 µM
- TGI [14]: 21.6 µM
- TGI [15]: > 100 µM
- TGI [16]: 12.2 µM
- TGI [17]: 56.7 µM
- TGI [18]: 9.67 µM
- TGI [19]: 18.4 µM
- TGI [20]: 21.4 µM
- TGI [21]: 15.1 µM
- TGI [22]: 24.3 µM
- TGI [23]: 4.74 µM
- TGI [24]: 33.3 µM
- TGI [25]: 35.3 µM
- TGI [26]: 32 µM
- TGI [27]: 14.6 µM
- TGI [28]: 4.38 µM
- TGI [29]: 6.95 µM
- TGI [30]: 33.1 µM
- TGI [31]: 51.1 µM
- TGI [32]: 26.1 µM
- TGI [33]: 4.75 µM
- TGI [34]: 25.1 µM
- TGI [35]: 23.8 µM
- TGI [36]: 34.2 µM
- TGI [37]: 55.1 µM
- TGI [38]: 18.6 µM
- TGI [39]: 16.2 µM
- TGI [40]: 40 µM
- TGI [41]: > 100 µM
- TGI [42]: 74.5 µM
- TGI [43]: 32.2 µM
- TGI [44]: 55.3 µM
- TGI [45]: 17.3 µM
- TGI [46]: 42.9 µM
- TGI [47]: 36.3 µM
- TGI [48]: > 100 µM
- TGI [49]: 49.6 µM
- TGI [50]: 39.3 µM
- TGI [51]: 3.31 µM
- TGI [52]: 87.1 µM
- TGI [53]: 6.1 µM
- TGI [54]: 41.7 µM

SMILES: O=C(N/N=C/c1ccc(Br)cc1)N/N=C/c1ccc(Br)cc1
- TGI [1]: 52.9 µM
- TGI [2]: 5.11 µM
- TGI [3]: > 100 µM
- TGI [4]: 95.8 µM
- TGI [6]: 31.6 µM
- TGI [7]: 31.3 µM
- TGI [55]: > 100 µM
- TGI [9]: > 100 µM
- TGI [10]: 17.5 µM
- TGI [11]: 15.6 µM
- TGI [12]: 10.8 µM
- TGI [56]: > 100 µM
- TGI [13]: 40.1 µM
- TGI [14]: 13.4 µM
- TGI [15]: 31 µM
- TGI [16]: > 100 µM
- TGI [17]: 7.96 µM
- TGI [18]: 5.39 µM
- TGI [19]: 14.9 µM
- TGI [20]: 30.5 µM
- TGI [21]: 26 µM
- TGI [22]: > 100 µM
- TGI [23]: 31.1 µM
- TGI [25]: > 100 µM
- TGI [26]: 18.5 µM
- TGI [27]: 19.8 µM
- TGI [28]: 18 µM
- TGI [29]: 30.7 µM
- TGI [30]: 26.9 µM
- TGI [31]: 91.4 µM
- TGI [32]: > 100 µM
- TGI [33]: 40.2 µM
- TGI [34]: 16.2 µM
- TGI [35]: 41.2 µM
- TGI [36]: 27.7 µM
- TGI [38]: 40.5 µM
- TGI [39]: 37.5 µM
- TGI [40]: 22.9 µM
- TGI [41]: 30.2 µM
- TGI [43]: 76 µM
- TGI [44]: > 100 µM
- TGI [45]: 20.8 µM
- TGI [57]: 17.4 µM
- TGI [46]: 78.2 µM
- TGI [47]: 24 µM
- TGI [48]: 16.6 µM
- TGI [49]: 29.6 µM
- TGI [58]: 19.6 µM
- TGI [50]: 32.4 µM
- TGI [51]: > 100 µM
- TGI [52]: > 100 µM
- TGI [53]: 17.7 µM
- TGI [54]: > 100 µM
